Measurements from patent US7129352B2, “Crystalline salts of 7-′4-(4-fluorophenyl) -6-isopropyl-2-′methyl (methylsulfonyl) amino!pyrimidin-5-yl!- (3R, 5S) -3, 5-dihydroxyhept-6-enoic acid” (AstraZeneca AB, priority 2000, dated 2006).

What was measured:
[1] = hygroscopicity of the crystalline salt; type: physicochemical
[2] = solubility profile of the crystalline salt; type: physicochemical

Substance: tris(hydroxymethyl)methylammonium (E)-7-[4-(4-fluorophenyl)-6-isopropyl-2-[methyl(methylsulfonyl)amino]pyrimidin-5-yl]-(3R,5S)-3,5-dihydroxyhept-6-enoate [Example 2]
- hygroscopicity [1]: non-hygroscopic
- solubility profile [2]: advantageous solubility profile
